Experimental data reported in the NIST ThermoML archive (doi:10.1016/j.fluid.2019.06.022).
Where “and” joins values, the source holds several entries; their conditions need not be identical. Equal values may be shown once.

Assay: xn = mol fraction of the nth substance listed
Details: Liquid; for mass density: Bellows volumetry; for viscosity: Falling or rolling sphere viscometry

C=C [ethene] + Cc1ccccc1
Details | mass density, x1 = 0.1131 [kg/m3] | mass density, x1 = 0.3241 | viscosity, x1 = 0.1131 | viscosity, x1 = 0.3241
295.4 K, 2700 kPa | 815.8 | – | 0.474 mPa·s | –
295.4 K, 2800 kPa | 815.8 | – | 0.474 mPa·s | –
295.4 K, 11400 kPa | 823.1 | – | 0.508 mPa·s | –
295.4 K, 11500 kPa | 823.1 | – | 0.509 mPa·s | –
295.4 K, 20400 kPa | 829.9 | – | 0.551 mPa·s | –
295.4 K, 20500 kPa | 829.9 | – | 0.548 mPa·s | –
295.4 K, 36200 kPa | 840.8 | – | 0.614 mPa·s and 0.615 mPa·s | –
298 K, 3400 kPa | – | 754.7 kg/m3 | – | 0.309 mPa·s
298 K, 3700 kPa | – | 754.7 kg/m3 | – | 0.312 mPa·s
298 K, 10000 kPa | – | 767.2 kg/m3 | – | 0.328 mPa·s and 0.332 mPa·s
298 K, 22000 kPa | – | 778.9 kg/m3 | – | 0.36 mPa·s and 0.364 mPa·s
298 K, 22300 kPa | – | 778.9 kg/m3 | – | 0.362 mPa·s
298 K, 22400 kPa | – | 778.9 kg/m3 | – | 0.366 mPa·s
298 K, 35100 kPa | – | 789.8 kg/m3 | – | 0.402 mPa·s and 0.398 mPa·s
298 K, 48000 kPa | – | 799.7 kg/m3 | – | 0.434 mPa·s and 0.439 mPa·s
298 K, 68400 kPa | – | 813.3 kg/m3 | – | 0.496 mPa·s
298 K, 68500 kPa | – | 813.3 kg/m3 | – | 0.5 mPa·s
322.1 K, 4200 kPa | 792.1 | – | 0.36 mPa·s and 0.361 mPa·s | –
322.1 K, 10200 kPa | 798.1 | – | 0.376 mPa·s and 0.377 mPa·s | –
322.1 K, 21200 kPa | 808 | – | 0.415 mPa·s | –
322.1 K, 34400 kPa | 819.1 | – | 0.442 mPa·s | –
322.1 K, 34500 kPa | 819.1 | – | 0.452 mPa·s | –
322.1 K, 48100 kPa | 828.1 | – | 0.495 mPa·s | –
322.1 K, 48200 kPa | 828.5 | – | 0.498 mPa·s and 0.497 mPa·s | –
322.1 K, 65900 kPa | 840 | – | 0.556 mPa·s and 0.55 mPa·s | –
322.2 K, 7200 kPa | – | 739.3 kg/m3 | – | 0.25 mPa·s and 0.253 mPa·s
322.2 K, 14700 kPa | – | 748.2 kg/m3 | – | 0.268 mPa·s and 0.27 mPa·s
322.2 K, 21700 kPa | – | 756.1 kg/m3 | – | 0.288 mPa·s
322.2 K, 21800 kPa | – | 756.1 kg/m3 | – | 0.283 mPa·s
322.2 K, 34300 kPa | – | 768.4 kg/m3 | – | 0.313 mPa·s
322.2 K, 34500 kPa | – | 768.4 kg/m3 | – | 0.317 mPa·s
322.2 K, 48300 kPa | – | 780.5 kg/m3 | – | 0.344 mPa·s and 0.348 mPa·s
322.2 K, 68800 kPa | – | 795.9 kg/m3 and 795.8 kg/m3 | – | 0.391 mPa·s and 0.397 mPa·s
368.1 K, 6800 kPa | – | 692.1 kg/m3 | – | 0.171 mPa·s and 0.169 mPa·s
368.1 K, 13800 kPa | – | 704 kg/m3 | – | 0.182 mPa·s
368.1 K, 13900 kPa | – | 704 kg/m3 | – | 0.185 mPa·s
368.1 K, 26500 kPa | – | 721.7 kg/m3 and 720.9 kg/m3 | – | 0.205 mPa·s and 0.208 mPa·s
368.1 K, 26600 kPa | – | 720.8 kg/m3 and 721.6 kg/m3 | – | 0.207 mPa·s and 0.208 mPa·s
368.1 K, 41800 kPa | – | 736.7 kg/m3 | – | 0.234 mPa·s
368.1 K, 42100 kPa | – | 736.7 kg/m3 | – | 0.235 mPa·s
368.1 K, 54100 kPa | – | 749.3 kg/m3 | – | 0.254 mPa·s and 0.255 mPa·s
368.1 K, 54300 kPa | – | 749.3 kg/m3 | – | 0.253 mPa·s and 0.256 mPa·s
368.1 K, 68200 kPa | – | 761.9 kg/m3 | – | 0.278 mPa·s and 0.279 mPa·s
369.3 K, 4200 kPa | 748.1 | – | 0.235 mPa·s | –
369.3 K, 4300 kPa | 748.1 | – | 0.236 mPa·s | –
369.3 K, 10200 kPa | 755.4 | – | 0.251 mPa·s | –
369.3 K, 10300 kPa | 755.4 | – | 0.25 mPa·s | –
369.3 K, 20700 kPa | 767.5 | – | 0.273 mPa·s | –
369.3 K, 20800 kPa | 767.5 | – | 0.273 mPa·s | –
369.3 K, 34800 kPa | 781.7 | – | 0.305 mPa·s and 0.304 mPa·s | –
369.3 K, 48700 kPa | 794.3 | – | 0.335 mPa·s | –
369.3 K, 48800 kPa | 794.3 | – | 0.335 mPa·s | –
369.3 K, 68400 kPa | 809.5 | – | 0.382 mPa·s | –
369.3 K, 68500 kPa | 809.5 | – | 0.379 mPa·s | –
435.9 K, 15500 kPa | – | 638 kg/m3 | – | 0.126 mPa·s
435.9 K, 15900 kPa | – | 637.9 kg/m3 | – | 0.126 mPa·s
435.9 K, 27600 kPa | – | 662 kg/m3 | – | 0.146 mPa·s
435.9 K, 27700 kPa | – | 662 kg/m3 | – | 0.144 mPa·s
435.9 K, 41800 kPa | – | 685.4 kg/m3 | – | 0.165 mPa·s
435.9 K, 42000 kPa | – | 685.3 kg/m3 and 685.5 kg/m3 | – | 0.168 mPa·s and 0.164 mPa·s
435.9 K, 42200 kPa | – | 685.4 kg/m3 | – | 0.166 mPa·s
435.9 K, 56000 kPa | – | 703.4 kg/m3 | – | 0.192 mPa·s
435.9 K, 56200 kPa | – | 703.4 kg/m3 | – | 0.188 mPa·s
435.9 K, 68400 kPa | – | 716.8 kg/m3 | – | 0.202 mPa·s
435.9 K, 68500 kPa | – | 716.8 kg/m3 | – | 0.199 mPa·s
437 K, 3900 kPa | 678.2 | – | 0.155 mPa·s | –
437 K, 4200 kPa | 678.2 | – | 0.153 mPa·s | –
437 K, 13700 kPa | 699 | – | 0.173 mPa·s | –
437 K, 14100 kPa | 699.1 | – | 0.172 mPa·s | –
437 K, 27600 kPa | 721 | – | 0.196 mPa·s | –
437 K, 27800 kPa | 721 | – | 0.197 mPa·s | –
437 K, 41400 kPa | 738.3 | – | 0.22 mPa·s | –
437 K, 41500 kPa | 738.3 | – | 0.22 mPa·s | –
437 K, 42400 kPa | 740 | – | 0.222 mPa·s | –
437 K, 42700 kPa | 740 | – | 0.224 mPa·s | –
437 K, 54200 kPa | 750.9 | – | 0.242 mPa·s | –
437 K, 54300 kPa | 750.9 | – | 0.243 mPa·s | –
437 K, 67900 kPa | 763.9 | – | 0.264 mPa·s | –
522 K, 23100 kPa | – | 555.7 kg/m3 | – | 0.097 mPa·s
522 K, 23200 kPa | – | 555.5 kg/m3 | – | 0.095 mPa·s
522 K, 29400 kPa | – | 574.4 kg/m3 and 574.7 kg/m3 and 574.6 kg/m3 | – | 0.102 mPa·s and 0.104 mPa·s
522 K, 29500 kPa | – | 574.4 kg/m3 | – | 0.103 mPa·s
522 K, 38300 kPa | – | 597 kg/m3 [middle of 4 runs] | – | 0.114 mPa·s [middle of 4 runs]
522 K, 50700 kPa | – | 621.2 kg/m3 and 620.9 kg/m3 | – | 0.125 mPa·s and 0.126 mPa·s
522 K, 50800 kPa | – | 621.2 kg/m3 | – | 0.125 mPa·s
522 K, 50900 kPa | – | 621.2 kg/m3 | – | 0.123 mPa·s
522 K, 68400 kPa | – | 645.9 kg/m3 | – | 0.144 mPa·s
522 K, 68700 kPa | – | 646 kg/m3 | – | 0.142 mPa·s
522.7 K, 9400 kPa | 581.8 | – | 0.101 mPa·s | –
522.7 K, 9800 kPa | 581.8 | – | 0.103 mPa·s | –
522.7 K, 31600 kPa | 643.4 | – | 0.137 mPa·s | –
522.7 K, 32000 kPa | 643.4 | – | 0.131 mPa·s | –
522.7 K, 32200 kPa | 643.5 | – | 0.132 mPa·s | –
522.7 K, 41200 kPa | 659.4 | – | 0.15 mPa·s | –
522.7 K, 41700 kPa | 659.4 | – | 0.145 mPa·s | –
522.7 K, 56200 kPa | 679.5 | – | 0.167 mPa·s | –
522.7 K, 56300 kPa | 679.4 | – | 0.162 mPa·s | –
522.7 K, 67600 kPa | 693.8 | – | 0.179 mPa·s | –
522.7 K, 68100 kPa | 693.8 | – | 0.177 mPa·s | –
